The record followed here is patent US5721106A, “In Vitro method for screening β-amyloid deposition” (Regents of the University of Minnesota, priority 1994, dated 1998).

The subject of assay [1] is AD plaques. The experiment in a line: Deposition of ^125 I-labelled β-amyloid peptides onto plaques in AD brain tissue (homogenate binding, autoradiography). Set-up: species or system human. Particulars: for deposition activity of fragment (active / not active): labelled fragment combined with AD amyloid plaque or silk, relative to βA(1-40)-OH; for plaque competence as a function of pH: growth of tissue plaques by deposition of labelled peptides from solution; for activity relative to the full length peptide βA(1-40)-OH: plaque deposition on AD brain sections, two hours, densitometry of autoradiograms. On the procedure: Fragments labelled in accordance with the method described herein can be combined with amyloid plaque derived from Alzheimer's disease tissue or other amyloid substance such as silk, and tested for activity, for example, their ability to deposit on these materials.
(§1) Brain tissue was obtained form normal and Alzheimer's disease patients at 0.5 to 14 hours postmortem, frozen on dry ice after collection, and stored at -20° C. until use. For filter binding studies, tissue homogenates were prepared after the method of H. P. Too and M. R. Hanley, Biochem. J. 252:545 (1988), the disclosure of which is incorporated by reference herein. Tissue was homogenized (Polytron, setting 7-8, 5-10 sec) in 5-10 volumes of 50 mM Tricine (pH 7.5) containing 10% sucrose and protease inhibitors (0.01% bacitracin, 0.002% soybean trypsin inhibitor, 0.0002% chicken egg trypsin inhibitor, 1 mM benzamidine hydrochloride) and pelleted at 10,000 g for 20 minutes. The homogenate was then resuspended and washed several times in Tricine buffer containing 120 mM NaCl, 10 mM EDTA, 300 mM KCl and centrifuged at 40,000 g for 20 minutes and stored at -20° C. for less than two months. Membranes (equivalent to about 30 mg tissue) were resuspended in 0.5 ml 50 mM TrisHCl (pH 7.5) containing 1 mg/ml bovine serum albumin (BSA), 10 mM MnCl2, 0.004% bacitracin, 0.002% chymostatin, 0.004% leupeptin, 0.1% dimethylsulfoxide for 30 minutes prior to addition of the radioligand (10^-11 to 10^-9 M) and various concentrations of unlabelled peptides in the same buffer.
(§2) After incubating for two hours at room temperature, the homogenates (final volume 0.575 ml) were filtered through glass fiber filters (Whatman GF/D), presoaked for at least two hours in 1 mg/ml BSA and rinsed with 25 mM Tricine (pH 7.5). After washing twice with 25 mM TrisHCl (pH 7.5) at room temperature, the filters were counted in a gamma counter.
For tissue autoradiography, unfixed tissue was serially sectioned at 5-15 μm and thaw-mounted onto gelatin-coated slices. Slide-mounted sections were stored at -20° C. in closed boxes over desiccant for less than three months before use. Sections were preincubated for 30 minutes and incubated with the radioligand for two hours under the same conditions according to the aforedescribed homogenate binding study. Alternatively, 50 mM TrisHCl rather than Tricine may be used as the buffer. For estimating nonspecific binding, paired serial sections were incubated with the radioligand in the presence of a 10^4 to 10^5 fold excess of the unlabelled peptide. Following incubation with the radioligand, the slides were washed with 50 mM TrisHCl pH 7.5 (four times, two minutes each at 4° C.), then dried at 4° C. and stored in closed boxes over desiccant at room temperature overnight. The fully dried slides were then placed in apposition to tritium-sensitive film alongside iodinated standards. After one week's exposure at -20° C., the film was developed, fixed and washed. […] This approach generated film autoradiograms for quantitative densitometry,a high resolution emulsion autoradiograms for detailed histology, and a counterstained section for identification of cell types from each tissue section.
Briefly peptides were purchased or synthesized by fluorenemethoxycarbonyl chemistry on polystyrene resins, using acid-labile blocking groups for sidechain protection, cleaved with trifluoroacetic acid, and purified by RP-HPLC. […] Autoradiograms were quantitated by densitometry. […] To study the peptide fragments in water we developed a novel approach, measuring NMR data at 750 MHz using a prototype 10 mm ^1 H pulsed field gradient probe. Modified two-dimensional homonuclear TOCSY and NOESY experiments were measured at several pH values and structural information was derived using standard methods.

The next assay has as its system tissue plaques. The experiment in a line: Effect of metal ions, chelating agent and detergents on deposition of labelled peptide on tissue plaques. Type of assay: binding, human. An excerpt: A deposition-enhancing agent may be added prior to the addition of the deposition-affecting agent to be tested.
The next assay deals with ceilan katia yarn (silk). Put plainly: Effect of detergents and zinc on deposition of tracer onto silk. Type of assay: binding, Bombyx silkworm.
The subject of assay [2] is Alzheimer's disease plaques. Put plainly: Competitive inhibition of ^125 I-β-amyloid peptide^1-40 deposition in homogenates of Alzheimer's disease temporal cortex. The class given is binding, human. Particulars: increasing concentrations of unlabelled peptide, AD temporal cortex homogenates (and sections). On the procedure:
as §1, §2

In assay [3] the test system is AD plaques. Put plainly: Deposition of ^125 I-labelled β-amyloid peptides onto plaques in AD brain tissue (homogenate binding, autoradiography). Set-up: species or system human. Particulars: for plaque deposition (plaque competence) at pH 3.9: quantitative densitometry of autoradiograms; for plaque deposition at pH 5.8: 100% = deposition of ^125 I-βA(1-40)-OH at pH 7.4.

For assay [4], the target named is amyloid plaques in Alzheimer's disease brain tissue (homogenates and thin sections). Put plainly: deposition of 125I-labelled peptide onto AD brain sections, autoradiography with densitometry.

Entries after “also recorded” stand apart in the source; their conditions may differ. Ends that are not written are not given here. Peptide text beside a SMILES is read from it. * marks the point of attachment. PEG = not defined here; 125I = [125I]* Where only a bound is given, the exact number is not on record here.

Chain of βA(1-28)-OH (peptide) (peptide): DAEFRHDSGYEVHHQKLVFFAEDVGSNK

For the molecule `CC[C@H](C)[C@H](NC(=O)[C@H](C)NC(=O)CNC(=O)[C@H](CCCCN)NC(=O)[C@H](CC(=O)O)NC(=O)[C@H](CO)NC(=O)CN)C(=O)N[C@H](C(=O)NCC(=O)N[C@@H](CC(C)C)C(=O)N[C@@H](CCSC)C(=O)O)[C@@H](C)CC` [D27-βA(25-35)-OH] (H-GSDKGAIIGLM-OH), the “deposition activity of fragment (active / not active)” value in the assay on AD plaques [1] is listed as “not active (exhibit less than about 1% of the deposition level of βA(1-40)OH)”.

On to `O=C(O)CN(CCN(CC(=O)O)CC(=O)O)CC(=O)O` [EDTA, ethylene diamine tetraacetic acid], for which, in the assay with tissue plaques (0.1 mM), the “inhibition of the rate of deposition of labelled peptide” value is reported as “five-fold”.

For the molecule `CCCCCCCCCCCC[N+](C)(C)CCCS(=O)(=O)[O-]` [Zwittergent 312], the “effect of detergent on deposition of labelled peptide on tissue plaques” value in the assay on tissue plaques is recorded as “no effect”.

Consider `[Cl-].[Cl-].[Zn+2]` [zinc chloride], for which the “enhancement of the rate of deposition of labelled peptide” value with tissue plaques (0.1 mM) is “twenty-fold”. Moreover, in the assay on tissue plaques (tracer ^125 I-βA(26-42)-NH2), the “effect on deposition of ^125 I-βA(26-42)-NH2 onto AD plaques” value is recorded as “unaffected”. Also, the “factor of acceleration of deposition of ^125 I-βA(1-40)-OH onto silk thread” value in the assay on ceilan katia yarn (silk) (tracer ^125 I-βA(1-40)-OH) was “about 5”. In the assay with ceilan katia yarn (silk) (tracer ^125 I-βA(26-42)-NH2), the “effect on deposition of ^125 I-βA(26-42)-NH2 onto silk” value was “unaffected”.

Consider `CC(C)C[C@H](NC(=O)[C@H](CCCCN)NC(=O)[C@H](CCC(N)=O)NC(=O)[C@H](Cc1c[nH]cn1)NC(=O)[C@H](Cc1c[nH]cn1)NC(=O)[C@@H](NC(=O)[C@@H](N)CCC(=O)O)C(C)C)C(=O)N[C@H](C(=O)N[C@@H](Cc1ccccc1)C(=O)N[C@@H](Cc1ccccc1)C(=O)N[C@@H](C)C(=O)N[C@@H](CCC(=O)O)C(=O)N[C@@H](CC(=O)O)C(=O)N[C@H](C(=O)NCC(=O)O)C(C)C)C(C)C` [βA(11-25)-OH], for which the “deposition activity of fragment (active / not active)” value in the assay with AD plaques [1] is given as “not active (exhibit less than about 1% of the deposition level of βA(1-40)OH)”.

As to `CC[C@H](C)[C@H](NC(=O)[C@H](C)NC(=O)CNC(=O)[C@H](CCCCN)NC(=O)[C@H](CC(N)=O)NC(=O)[C@H](CO)NC(=O)CN)C(=O)N[C@H](C(=O)NCC(=O)N[C@@H](CC(C)C)C(=O)N[C@@H](CCSC)C(N)=O)[C@@H](C)CC` [βA(25-35)-NH2] (H-GSNKGAIIGLM-NH2), the “inhibition of ^125 I-β-amyloid peptide^1-40 deposition onto plaques” value in assay [2] (listed as β-amyloid peptide^25-35 -NH2) was “competed with the 40-mer radioligand when the former was present at much higher concentrations; also recorded: substantially less potent”. Moreover, in the assay with AD plaques [1], the “deposition activity of fragment (active / not active)” value is “not active (exhibit less than about 1% of the deposition level of βA(1-40)OH)”.

Turning to “(des-A2)-βA(1-40)-OH: 39-mer lacking the alanine at position 2”, in the assay on AD plaques [1], the “deposition activity of fragment (active / not active)” value is on record as “active”.

Take “PEG-βA(10-35)-NH2: polyethylene glycol conjugate of βA(10-35)-NH2 ({PEG}-YEVHHQKLVFFAEDVGSNKGAIIGLM-NH2; reading uncertain)”: in the assay with AD plaques [1], the “deposition activity of fragment (active / not active)” value is “not active (exhibit less than about 1% of the deposition level of βA(1-40)OH)”.

As to Triton X-100, in the assay on tissue plaques, the “effect of detergent on deposition of labelled peptide on tissue plaques” value is on record as “no effect”. For the same molecule, the “effect of detergent on rate of deposition (binding) onto silk” value with ceilan katia yarn (silk) (detergent concentration 0 to 1%) is “no effect”.

As for “^125 I-βA(1-28)-OH: ^125 I-labelled βA(1-28)-OH”, in the assay on AD plaques [3], the “plaque deposition (plaque competence) at pH 3.9” value (“plaque deposition … at pH 3.9” for short) is “plaque-incompetent” and the “plaque deposition at pH 5.8” value is recorded as less than 1%.

Turning to “^125 I-βA(1-40)-OH: ^125 I-radioiodinated (monoiodinated, reduced) human β-amyloid peptide 1-40 tracer”, the “pH optimum of deposition onto plaques in AD tissue” value in the assay on AD plaques [1] (100 pM) is given as “around neutrality”. Moreover, in the assay with AD plaques [1] (tissue without preformed plaques), the “deposition in tissue without preformed plaques” value is “no deposition was detected”. Further, in the assay on AD plaques [3], the “plaque deposition … at pH 3.9” value is listed as “plaque-incompetent” and the “plaque deposition at pH 5.8” value turned out to be 83%.

On to “^125 I-βA(10-35)-NH2: ^125 I-labelled βA(10-35)-NH2, labelled at Tyr10 (Y(125I)EVHHQKLVFFAEDVGSNKGAIIGLM-NH2)”, for which, in the assay on AD plaques [3], the “plaque deposition … at pH 3.9” value is recorded as “plaque-incompetent” and the “plaque deposition at pH 5.8” value is listed as 30%.

Consider “rat βA(1-40)-OH: rat and mouse analogue (G^5, F^10, R^14) of β-amyloid peptide, 1-40 (DAEFGHDSGFEVHRQKLVFFAEDVGSNKGAIIGLMVGGVV-OH)”, for which the “inhibition of ^125 I-β-amyloid peptide^1-40 deposition onto plaques” value in assay [2] (listed as rat β-amyloid peptide^1-40) is “essentially inactive”; in assay [2] (listed as unlabelled rat β-amyloid peptide^1-40), “did not inhibit”. In addition, in the assay with AD plaques [1], the “deposition activity of fragment (active / not active)” value was “not active (exhibit less than about 1% of the deposition level of βA(1-40)OH)”.

Turning to βA(1-28)-OH (peptide), the activity relative to βA(1-40)-OH in assay [4] is less than 1%.

As for “βA(1-28)-OH: 28 residue fragment corresponding to the amino terminal region”, in the assay on AD plaques [1], the “plaque competence as a function of pH” value was “inactive at all pH values tested”, the “deposition activity of fragment (active / not active)” value is recorded as “not active (exhibit less than about 1% of the deposition level of βA(1-40)OH)” and the “activity relative to the full length peptide βA(1-40)-OH” value was “less than 1%”.

With “βA(1-35)-NH2: carboxyamidated β-amyloid fragment, residues 1-35”, the “deposition activity of fragment (active / not active)” value with AD plaques [1] was “active”.

As to “βA(1-40)-PEG: β-amyloid peptide 1-40 conjugated to polyethylene glycol at the C-terminus”, the “deposition activity of fragment (active / not active)” value with AD plaques [1] is listed as “active”.

As to “βA(10-35)-NH2: 26 residue carboxyamidated fragment from the central region of the βA sequence (YEVHHQKLVFFAEDVGSNKGAIIGLM-NH2; also: 125I at Tyr10 as tracer (name unlabelled))”, in the assay with AD plaques [1], the “plaque competence as a function of pH” value is listed as “plaque-competent within the pH range of 5 to 9”, the “deposition activity of fragment (active / not active)” value was “active” and the “activity relative to the full length peptide βA(1-40)-OH” value is “about 35%”. Besides, in the assay on AD plaques [1] (physiological (subnanomolar) peptide concentration), the “activity as fraction of the activity of βA(1-40)-OH” value is listed as “about 1/3”.

In the case of “βA(10-35)-OH: β-amyloid fragment residues 10-35, free carboxyl terminus (YEVHHQKLVFFAEDVGSNKGAIIGLM-OH)”, the “deposition activity of fragment (active / not active)” value in the assay on AD plaques [1] was “active”.

In the case of YEVHHQKLVFFAEDVGSNKGAIIGLM-NH2 (not fully specified (residue 1)) [βA(10-35)-NH2], in assay [4], the activity relative to the full length peptide was found to be 35%.
